# From patent US8575217B2, “Anti-inflammatory and antioxidant conjugates useful for treating metabolic disorders” (Genmedica Therapeutics SL, priority 2009, dated 2013)
# Assays:
# [1] = test system: human diabetic patients; conditions: 4.5 g/day; cited from earlier work
# [2] = Chemical stability of conjugates in neutral, acidic and basic solutions; type: physicochemical
# Experimental: Exemplary expérimental results showing the efficacy of certain embodiments of the combinations of the invention are set forth in the drawings. Stability studies were performed on thioester conjugates of N-acetylcysteine and salicylate, diflunisal or dexibuprofen, at neutral (pH 7), acidic, or basic (9) pH in phosphate-buffered saline (PBS). […] Diflunisal-NAC conjugates were tested for 3 or 24 hours under the same neutral, acidic and basic conditions, at room température or 4° C., and in PBS or mixture of water and méthanol.
# [3] = Cleavage by rat liver microsomes; type: in vitro ADME; conditions: 1 hour incubation; for cleavage of conjugate, rat versus human microsomes: free salicylate or diflunisal assayed
# Experimental: (§1) In vitro cleavage experiments were performed substantiallas described in Singh et al., 1996, In vitro metabolism of a potent HIV-protease inhibitor (141W94) using rat, monkey and human liver S9, Rapid Commun. Mass Spectrom. 10: 1019-1026. Briefly, conjugate compounds of the invention were incubated at a final concentration of 1 microM for 1 hour in the presence of human or rat liver microsome S9 (obtained from Xenotech). At the end of incubation at each of the time points reported, an equal volume of an organic mixture (acetonitrile/methanol, 50/50, v/v) was added to the incubation mixture followed by centrifugation. At this time blank microsomal extract was spiked with metabolites to create calibration standards for each metabolite at the following concentrations: 0 (blank), 0.05, 0.1, 0.5 and 1 microM. All samples were analyzed by HPLC-MS/MS and the peak areas corresponding to the expected metabolites (generally, antioxidant and anti-inflammatory cleaysasge products) were determined by HPLC-MS/MS. The amount of each metabolite present in the 60 minute incubation samples was determined from the corresponding calibration curve.
# The capacity for conjugates of the invention to be cleaved was tested in vitro using rat or human liver microsomes. […] Similar experiments were performed in plasma from rat or human for salicylate-NAC or diflunisal-NAC conjugates; thèse results are shown in FIGS. 3 and 4, respectively.
# [4] = Cleavage by human liver microsomes; type: in vitro ADME; conditions: 1 hour incubation; diflunisal-NAC compared with salicylate-NAC
# Experimental: as §1
# The capacity for conjugates of the invention to be cleaved was tested in vitro using rat or human liver microsomes. […]
# [5] = test system: db/db mice; assay: Chronic treatment in db/db mice; type: in vivo
# [6] = test system: db/db mice; assay: Pancreas insulin content and immunohistochemical analysis of pancreas sections in db/db mice; type: in vivo; conditions: chronic oral, four weeks, 0.5 mmol/kg/day (FIG. 24)
# Experimental: (§2) The circulating glucose concentration was determined by a rapid glucose analyzer (Accu-Chek Aviva; Roche). Plasma triglycerides and non esterified fatty acids were determined with standard colorimetric methods (Biosystems, Barcelona, Spain, and Wako Chemicals, Neuss, Germany, respectively). Plasma insulin concentration was determined by enzyme-linked immunosorbent assay method (CrystalChem, Downers Grove, Ill.). Total pancreas insulin content has been determined after extraction of insulin with a mixture Ethanol (70%)/HCl (0.15 N) from pancreas homogenates.
# The pancreas was removed from each mouse and fixed overnight in a solution of 4% formalin. Fixed tissues were processed routinely for paraffin embedding, and 6-μm sections were prepared and mounted on slides treated with xilane. For detection of insulin, the avidin-biotin complex (ABC) method was performed using Vectastain ABC Kit (Vector Laboratories). Deparaffinized and […] sections were microwaved in citrate buffer (pH 6.0) for antigen retrieval, then were incubated in Tris 100 mM pH 7.4 containing 3% BSA, and 0.01% Triton, to permeabilize and block nonspecific staining, for 30 min, and after that, were incubated with the guinea pig polyclonal anti-insulin antibody (Dako), diluted 1/500 in blocking solution for 2 hours. Negative controls were incubated with blocking solution without the primary antibody. […]
# [7] = Diflunisal and NAC blood levels after oral administration of conjugate versus separate components; type: in vivo, rats; conditions: 7-hour timecourse (FIG. 16)
# Experimental: A comparison of diflunisal and NAC levels in blood after oral administration was performed in rats by administration of the diflunisal-NAC conjugate (GMC-252) or the individual components separately (i.e., not chemically conjugated). Conjugate (20 mg/kg) or the equivalent amount of difliunisal and NAC were administered and blood assayed over a 7-hour timecourse.
# [8] = test system: control animals; assay: Preliminary experiment with control animals (oral diflunisal-NAC); type: in vivo; conditions: oral 0.5 mmol/kg
# [9] = test system: alloxan-treated cd-1 mice; assay: In vivo beta cell protection model (alloxan); conditions: for plasma insulin levels: lysine salt, alloxan-treated (FIG. 6)
# Experimental: Beta-cell destruction was induced in cd-1 mice after 3 hours of fasting by a single intraperitoneal injection of a freshly prepared solution of alloxan 200 mg/kg (Sigma-Aldrich, San Luis, Mo.) that was dissolved in NaCl 0.9%. Single intraperitoneal drug administration was 1 hour before the alloxan administration. Animals received the different drugs dissolved in PBS pH 7.4, and the animals that not received any drug were injected with the vehicle, in this case PBS pH 7.4. At the end of the treatment, at day 4, animals were killed and the plasma collected and kept at −20° C. until used.
# as §2
# [10] = test system: db/db mice; assay: Intraperitoneal glucose tolerance test in db/db mice; type: in vivo; conditions: salicylate-NAC 1.5, diflunisal-NAC 0.5 mmol/kg/day as lysine salt; glucose 0.5 g/kg ip, 120 minute timecourse
# Experimental: At the fourth week of treatment, a Glucose Tolerance Test was done to the mice after an overnight fasting. The animals received an ip injection of Glucose 0.5 g/kg (Glucosmon 50®). The glycemia levels were determined in blood at the indicated time from the Tail Vein after the Glucose injection using a rapid glucose analyzer.
# [11] = 0.75 mmol/kg/day as lysine salt, ip, compared with separate administration of salicylate or NAC (FIG. 7)
smiles,measurement,setting,value
O=C(Oc1ccccc1C(=O)O)c1ccccc1O [salsalate],enhancement of side effects such as tinnitus,[1],66%
CC(=O)N[C@@H](CSC(=O)c1cc(-c2ccc(F)cc2F)ccc1O)C(=O)O [Example 13],"stability of lysine salt in PBS, 3 hours",[2],stable
same,stability of lysine salt in water/methanol mixture,[2],did not show comparable stability
same,"stability of lysine salt in PBS, 24 hours","[2]; 24 h, pH 7",not after 24 hours
same,stability of free acid in water/methanol mixture,[2]; pH 7,stable over 3 and 24 hours
same,"cleavage of conjugate, rat versus human microsomes",[3],Rat microsomes were found to be more potent in cleaving
same,percentage of anti-inflammatory component released by rat liver microsomes,[3]; diflunisal-NAC compared with salicylate-NAC,a higher percentage of diflunisal that salicyalte was released
same,percentage of anti-inflammatory component released by human liver microsomes,[4],a higher percentage of diflunisal that salicyalte was released
same,body weight of treated db/db mice,[5]; oral 0.5 mmol/kg (FIG. 20),did not affect the weight
same,epididimal adipose tissue weight,"[5]; oral 0.5 mmol/kg, treated group (vehicle 1.7±0.09)",1.8 ± 0.07 g
same,macroscopic lesions of the gastro intestinal system,[5]; oral treatment of db/db mice,did not induce any macroscopic lesions
same,pancreatic weight,[6],without affecting pancreatic weight
same,plasma concentration profile of diflunisal and NAC,[7]; oral 20 mg/kg conjugate versus equivalent diflunisal and NAC given separately,a more gradual increase in plasma concentrations
same,final plasma concentrations of diflunisal and NAC,[7]; oral 20 mg/kg conjugate versus separate components,the final concentrations were the same
same,body weight and epididimal adipose tissue weight,[8],did not affect these two parameters
CC(=O)NC(CSC(=O)C(C)c1ccc(CC(C)C)cc1)C(=O)O (stereo not drawn) [Dexibuprofen-NAC],stability of free acid in water/methanol mixture,"[2]; free acid, water/methanol, 3 and 24 hours (diflunisal-NAC: neutral pH, room temperature)",stable for 3- and 24-hour incubation
same,stability of lysine salt at neutral pH,"[2]; lysine salt, neutral pH, room temperature or 4° C.",stable as lysine salts
"CC(=O)N[C@@H](CSC(=O)c1ccccc1O)C(=O)O [Example 1, (R)-2-acetamido-3-(2-hydroxybenzoylthio)propanoic acid]","stability under acidic conditions, lysine salt",[2]; 3 h,stable after 3 hours
same,"stability, free acid in the absence of lysine",[2]; 3 days,lost stability during a 3-day timecourse
same,detectable conjugate under basic conditions,"[2]; basic pH (9), PBS, room temperature, 3 hour incubation, free acid and lysine salt tested",only the lysine salt showed any (sparing) détectable conjugate
same,"cleavage of conjugate, rat versus human microsomes",[3],Rat microsomes were found to be more potent in cleaving
same,glycemia,"[9]; 0.38 mmol/kg or equivalent amount of combination, 4-day timecourse, male cd-1 mice (FIG. 17)",statistically-significant reduction
same,pancreatic beta-cell function (as assessed by plasma insulin levels),[9]; alloxan-treated mice (FIG. 17),statistically-significant potection of pancreatic beta-cell function
same,plasma insulin levels,"[9]; i.p., listed as GMC-3a",preservation of insulin levels
same,plasma insulin levels,"[9]; i.p., listed as salicylate-NAC",an increase in plasma insulin levels
same,effect of alloxan on β-cells,[9]; lysine salts (FIG. 6),reduce the effect of alloxan on β-cells
same,glycemia,"[9]; lysine salts, i.p., 4-day timecourse (FIG. 6)",statistically-significant reductions in glycemia
same,free fatty acid levels,[5]; 0.38 mmol/kg/day or equivalent amount of combination (FIG. 18),lowered significantly only by the conjugate
same,free fatty acid levels,[5]; [11],significantly improved
same,plasma triglyceride levels,[5]; [11],significantly improved
same,free fatty acid levels,[5]; 0.75 mmol/kg/day or equivalent amount of combination (FIG. 18),statistically-significant reductions
same,triglycerides,"[5]; chronic oral, diflunisal-NAC 0.5, salicylate-NAC 1.5 mmol/kg/day as lysine salt (FIG. 11)",significant réductions in triglycerides
same,plasma glucose in glucose tolerance test,[10],reductions in plasma glucose
